Laboratory results published in patent publication US20160002733A1, “ASSESSING RISK FOR ENCEPHALOPATHY INDUCED BY 5-FLUOROURACIL OR CAPECITABINE” (THE BOARD OF TRUSTEES OF THE LELAND STANFORD JUNIOR …, priority 2013, published 2016).
“And” between values parts separate entries of the source, which are not always exact repeats. Equal entries are not always repeated. Where two headings read alike, the source gives them in different places.

Key:
[1] = type: in vivo, human; settings: for plasma ammonia: male
Description: (§1) Plasma ammonia levels were obtained at Stanford University Medical Center, which followed a strict protocol of immediately placing the blood sample on ice, and then analyzing the sample within 15 minutes. Samples not placed on ice, or analyzed after a longer delay yield artificially elevated plasma ammonia levels due to release of ammonia from erythrocytes and deamination of plasma amino acids (52, 53).
A person with gastric adenocarcinoma underwent subtotal gastrectomy and Roux-en-Y gastrojejunostomy, followed by two cycles of adjuvant carboplatin and capecitabine (1000 mg/m^2 twice a day for 14 days), and then 50 Gy of radiation therapy to the tumor bed with concurrent capecitabine (1000 mg/m^2 twice a day). During each course of capecitabine, they experienced extreme lethargy, without mucositis, diarrhea or hand-foot syndrome.
On the third cycle of carboplatin and capecitabine, self-administered folate 1 mg/d hoping to prevent lethargy. From days 5 to 14 of capecitabine, they became increasingly confused, and then combative and ataxic. Two days after the last capecitabine dose, they were taken to local emergency room for delirium and found to have a normal CT scan of the brain.
After discontinuation of lactulose on discharge from the hospital, plasma ammonia gradually rose and then returned to normal over two months (FIG. 2A). Four months after discharge, mild liver steatosis was noted on CT scan for the first time.
A person with newly diagnosed squamous cell carcinoma of the left tonsil and base of tongue began treatment with docetaxel and cisplatin, followed by a planned 5-day infusion of 5-FU (750 mg/m^2). Past medical history included manic depression treated with valproic acid.
(§2) After 1 day, the infusion 5-FU was held because of diarrhea from C. difficile, which was treated with metronidazole. Two days later, the infusion was resumed. On the third infusion day, the patient developed slurred speech and gait ataxia. On the fifth infusion day, they became delirious and then comatose. MRI and CT scan of the brain, and lumbar puncture were normal. Valproic acid trough levels ([…]) were within therapeutic range, which is sufficient to inhibit N-acetylglutamate synthase (FIG. 1A) and disrupt the urea cycle (11, 12). Despite multiple episodes of diarrhea and a delay of 10 hours following discontinuation of infusion 5-FU, plasma ammonia was elevated at 37 μmol/L. The next day, the patient was alert, and plasma ammonia was 16 μmol/L. The tumor had decreased markedly in size, no longer preventing them from turning their head.
A person with a well-differentiated neuroendocrine tumor of unknown primary began treatment with capecitabine (days 1-14) and temozolomide (days 10-14) after progression of massive liver metastases. […]

[2] = high dose continuous infusion 5-FU; sixteen of 280 patients; cited from earlier work
[3] = Valproic acid trough levels in Patient 2; type: in vivo, human; settings: within therapeutic range
Description: as §2

[4] = Prospective measurement of plasma ammonia levels in patients treated with capecitabine; type: in vivo, human
Description: Prospective Measurement of Plasma Ammonia Levels in Patients Treated with Capecitabine
Patients donated whole blood for analysis after providing consent according to a protocol approved by the Stanford University Administrative Panel for the Protection of Human Subjects.
as §1, with “53). […]” for “53).”
Mid-cycle levels were measured after patients had taken capecitabine for 7 to 14 days. […]
To prospectively measure plasma ammonia after capecitabine, we prospectively studied 29 cancer patients (Table 3). […] To estimate baseline plasma ammonia levels, we measured 2 or more levels before the first capecitabine dose or at least 7 days after the previous capecitabine dose.
We monitored changes in cognitive function between baseline and mid-cycle time points with two instruments: a telephone-administered mini-mental status examination, and a patient self-administered questionnaire. […]

OC[C@H]1O[C@@H](O[C@@H]2[C@@H](CO)OC(O)(CO)[C@H]2O)[C@H](O)[C@@H](O)[C@H]1O (mixture of isomers) [lactulose]
plasma ammonia with lactulose treatment ([1]; Patient 1 (index case), declined from 158 μmol/L, symptoms resolved): 29 µmol/L

O=c1[nH]cc(F)c(=O)[nH]1 [5-FU, 5-fluorouracil]
plasma ammonia ([1]; human, in vivo): 16 µmol/L | patients who suffered encephalopathy with hyperammonemia [2]: 5.7%

CCCC(CCC)C(=O)O [Valproic acid, valproic acid]
Valproic acid trough levels [3]: 45 µg/mL and 68 µg/mL

CCCCCOC(=O)Nc1nc(=O)n(C2OC(C)C(O)C2O)cc1F (centres unmarked) [capecitabine, pentyl[1-(3,4-dihydroxy-5-methyltetrahydrofuran-2-yl)-5-fluoro-2-oxo-1H-pyrimidin-4-yl]carbamate]
patients with mid-cycle plasma ammonia levels increased above baseline levels ([4]; 29 cancer patients, mid-cycle after 7 to 14 days of capecitabine, by more than 3 or 4 standard deviations (p<0.01 or p<0.001)): 5 of the 29 | patients with clinically significant symptoms among those with increased mid-cycle ammonia levels ([4]; of the 5 patients with increased mid-cycle ammonia, cognitive dysfunction, malaise, fatigue, unsteady gait): 2 of the 5 | plasma ammonia level ([1]; female, human, in vivo, 7 days after the last capecitabine dose): 158 µmol/L | plasma ammonia ([1]; human, in vivo, 7 days after discontinuing capecitabine): 54 µmol/L
